Counter-ions that a name gives are not always drawn.
Legend:
[1] = initial measurement of the pH of the solution; format: physicochemical
[2] = test system: atopic asthmatic patients; settings: aerosol; bronchospasms induced by physical exercises, ultrasonic fogs and immunological stimulations; 10 mg/ml sodium salt solution inhaled for 15 to 20 minutes; cited from earlier work

pH (initial measurement) ([1]; Sol. 1, water, 97.2 mg/ml)	pH (initial measurement) ([1]; Sol. 2, physiol. sol., 184.4 mg/ml)	pH (initial measurement) ([1]; Sol. 3, water, 275.3 mg/ml)	pH (initial measurement) ([1]; Sol. 4, water, 125.0 mg/ml, kept at 60° C.)	pH (initial measurement) ([1]; Sol. 5, water, 125.0 mg/ml, kept at 25° C. away from the light)	pH (initial measurement) ([1]; Sol. 6, water, 90.4 mg/ml)	pH (initial measurement) ([1]; Sol. 7, water containing 4% by weight of mannitol, 72.1 mg/ml)	Structure (SMILES)	prevention of bronchospasms [2]
7.00	7.09	7.32	7.06	7.06	6.95	7.06	NS(=O)(=O)c1cc(C(=O)O)c(NCc2ccco2)cc1Cl [furosemide salt of L-lysine, L-lysine salt of furosemide]	
							NS(=O)(=O)c1cc(C(=O)O)c(NCc2ccco2)cc1Cl [furosemide, 4-chloro-N-furyl-5-sulfamoyl-anthranylic acid]	prevent bronchospasms

Source: patent publication US5182300A, “Furosemide salts” (Roussel Uclaf, priority 1989, dated 1993)
